This note sets out measurements from US20240376114A1, “NUCLEAR TRANSPORT MODULATORS AND USES THEREOF” (Karyopharm Therapeutics Inc., priority 2011, published 2024).

One series has as its system HCT-116 xenografts. Briefly: Inhibition of HCT-116 xenografts in vivo. How it is done:
Mice were inoculated on the hind flank with HCT-116 cell line and the HCT-116 xenografts were grown to approximately 150 mm^3, at which time treatment was initiated. Treatment groups were as follows:
50 mg/kg 5-FU IP, days 1-3;
25 mg/kg Compound 1 compound QD×5 SC (low dose);
75 mg/kg Compound 1 compound QD×5 SC (high dose).

In series [1] the test system is HCT-116 cells. The experiment in a line: Western blot of pRb and phosphorylated pRb in HCT-116 cells. The class given is cell-based. The note with it: 10 μM, more than 6 hours. Here is the method: HCT-116 cells were incubated with 10 μM Compound 1 for 2, 4, 6, 16, or 24 hours (indicated in FIGS. 3A and 3B as “2+,” 4+,” etc.), or with 10 μM Compound 1 for 22 hours and an additional 1 μM Compound 1 for another 2 hours (indicated in FIGS. 3A and 3B as “22+2+”). At the end of the incubation period, total protein extracts were prepared. Cytoplasmic and nuclear proteins were separated, immunoblotted and reacted with antibodies to phosphorylated pRb (pRb^phos), pRb, actin and lamin B.
A general note: In western blotting, separated proteins are transferred to a membrane and probed.

Series [2] relates to HCT-116 cells. The experiment in a line: Immunofluorescence of APC and IκB localization in HCT-116 cells. It counts as cell-based. As to conditions: 10 μM, 24 hours. Here is the method:
HCT-116 cells were incubated with 10 μM Compound 1 for 24 hours, at which time the cells were fixed and stained with antibodies to APC or IκB, or DAPI.

For series [3], the system named is splenocytes and circulating CD8 cells. Briefly: FACS of immune cells at day 26 of the EAE model. It counts as in vivo, mouse. The note with it: day 26, high dose (75 mg/kg). The text has this:
On day 26, a subset of mice was sacrificed and immune cells were subjected to fluorescence-activated cell sorting (FACS) using standard methods.

In series [4] the test system is HCT-116 cells. Briefly: Immunofluorescence of pRb localization in HCT-116 cells. The class given is cell-based. As to conditions: 10 μM, 24 hours. Here is the method:
HCT-116 cells were incubated with 10 μM Compound 1 for 24 hours, at which time the cells were fixed and stained with antibodies to pRb or DAPI.

Another series addresses CRM1 (Homo sapiens (Human), UniProt O14980). Briefly: Immunofluorescence of p21 and p53 localization in HCT-116 cells. The class given is cell-based. As to conditions: 10 μM, 24 hours. Here is the method: HCT-116 cells were incubated with 10 μM Compound 1 for 24 hours, at which time the cells were fixed and stained with antibodies to p21 or p53, or the DNA stain, DAPI.

For series [5], the system named is EAE model of multiple sclerosis. As to conditions: 25 mg/kg and 75 mg/kg, oral gavage, 3 days per week.
Series [6] is described as follows: Pharmacokinetic (PK) assay, plasma AUC. The class given is in vivo. The note with it: 10 mg/kg, mouse, PO, 10 mpk, read-out: AUCInf hr * ng/mL (mouse, PO, 10 mpk). Here is the method: Pharmacokinetics (PK) play an increasing role in drug discovery and development. Pharmacokinetics is the quantitative study of the time course of drug absorption, distribution, metabolism and/or excretion. When a drug is administered, it distributes rapidly from its administration site into the systemic blood circulation. One measure of the extent of a therapeutic agent's distribution is the area under the plasma concentration-time curve (AUC), calculated to the last measured concentration (AUCt) and extrapolated to infinity (AUCinf). AUC is thus a useful metric to quantitate drug exposure. AUC. Blood was collected from mice (N=3) to contribute to the total of 10 time points (pre-dose, 5 min, 15 min, 30 min, 1 hour, 2 hours, 4 hours, 8 hours, 12 hours and 24 hours post dose). Mice were bled on a rotating basis, each mouse contributing 3 time points to the blood collection. At the designated time points, animals were anaesthetized under isoflurane, and approximately 110 μL of blood per time point was collected via retro-orbital puncture into pre-cooled K2EDTA (anti-coagulant) tubes. Blood samples were put on wet ice and centrifuged (2000 g, 5 min at 4° C.) to obtain plasma within 30 minutes of sample collection. All samples were stored frozen at approximately −80° C. until analysis. Prior to analysis, samples were mixed with internal standard (dexamethasone) in acetonitrile, vortexed, centrifuged, and supernatant was injected for analysis. Concentration of compounds in plasma was determined using LC-MS-MS instrumentation (API 4000, Triple Quadruple with electrospray ionization; Acuity Ultra Performance Liquid Chromatography column C18, with MeOH and formic acid as organic solvents). AUC values were calculated using WinNonlin Professional 6.2 software package, non-compartmental pharmacokinetic model NCA200.

Series [7] is described as follows: CellTiter 96 AQueous One Solution (MTS) cell proliferation assay. It counts as cell-based. As to conditions: human, MM.1S multiple myeloma cells; MM.1S cells, 72 h treatment; read-out: Cytotoxicity [EC50].
Series [8] in a line: Brain to plasma (B:P) ratio determination. The note with it: brain and plasma; mouse, PO at 10 mg/kg, 2 hours post-dose. It counts as in vivo. The text has this: The brain to plasma (B:P) ratio is one method of quantifying the relative distribution of a therapeutic agent in brain tissue to that in circulation and, as such, provides one indication of the brain penetration of a given therapeutic agent. A high brain to plasma ratio is preferred when targeting diseases localized in the central nervous system (CNS), including the brain and the cerebrospinal fluid. However, a lower brain to plasma ratio is generally preferable for non-CNS therapeutic agents to minimize brain penetration and avoid potential side effects caused by unwanted accumulation of the therapeutic agents in the brain and CNS tissue.
Brain to Plasma (B:P) Ratio. […] Following collection, brain tissue was rinsed with cold saline, dried on filter paper, weighed and snap-frozen by placing on dry ice. All samples were stored frozen at approximately −80° C. until analysis. […] Plasma samples were treated with the identical method (except homogenization step) and the concentration of compound in each matrix was calculated based on generated standard curves.

In series [9] the test system is HCT-116 cells. The experiment in a line: Western blot of p53, p21, PARP in cytoplasmic and nuclear fractions of HCT-116 cells. It counts as cell-based. As to conditions: 10 μM. How it is done: HCT-116 cells were incubated with 10 μM Compound 1 for 2, 4, 6, 16, or 24 hours (indicated in FIGS. 2A and 2B as “2+,” 4+,” etc.), or with 10 μM Compound 1 for 22 hours and an additional 1 μM Compound 1 for another 2 hours (indicated in FIGS. 2A and 2B as “22+2+”). At the end of the incubation period, total protein extracts were prepared. Cytoplasmic and nuclear proteins were separated, immunoblotted and reacted with antibodies to p53, p21, full-length (FL) PARP, cleaved PARP and lamin B.

As a reminder, the EC50 is the concentration that produces a half-maximal response. As usually defined, the Kp is tissue or fluid exposure divided by exposure in the circulation.

A value given as a limit tells only on which side of the number the result lay.

Chain of CRM1 (O14980 whole entry): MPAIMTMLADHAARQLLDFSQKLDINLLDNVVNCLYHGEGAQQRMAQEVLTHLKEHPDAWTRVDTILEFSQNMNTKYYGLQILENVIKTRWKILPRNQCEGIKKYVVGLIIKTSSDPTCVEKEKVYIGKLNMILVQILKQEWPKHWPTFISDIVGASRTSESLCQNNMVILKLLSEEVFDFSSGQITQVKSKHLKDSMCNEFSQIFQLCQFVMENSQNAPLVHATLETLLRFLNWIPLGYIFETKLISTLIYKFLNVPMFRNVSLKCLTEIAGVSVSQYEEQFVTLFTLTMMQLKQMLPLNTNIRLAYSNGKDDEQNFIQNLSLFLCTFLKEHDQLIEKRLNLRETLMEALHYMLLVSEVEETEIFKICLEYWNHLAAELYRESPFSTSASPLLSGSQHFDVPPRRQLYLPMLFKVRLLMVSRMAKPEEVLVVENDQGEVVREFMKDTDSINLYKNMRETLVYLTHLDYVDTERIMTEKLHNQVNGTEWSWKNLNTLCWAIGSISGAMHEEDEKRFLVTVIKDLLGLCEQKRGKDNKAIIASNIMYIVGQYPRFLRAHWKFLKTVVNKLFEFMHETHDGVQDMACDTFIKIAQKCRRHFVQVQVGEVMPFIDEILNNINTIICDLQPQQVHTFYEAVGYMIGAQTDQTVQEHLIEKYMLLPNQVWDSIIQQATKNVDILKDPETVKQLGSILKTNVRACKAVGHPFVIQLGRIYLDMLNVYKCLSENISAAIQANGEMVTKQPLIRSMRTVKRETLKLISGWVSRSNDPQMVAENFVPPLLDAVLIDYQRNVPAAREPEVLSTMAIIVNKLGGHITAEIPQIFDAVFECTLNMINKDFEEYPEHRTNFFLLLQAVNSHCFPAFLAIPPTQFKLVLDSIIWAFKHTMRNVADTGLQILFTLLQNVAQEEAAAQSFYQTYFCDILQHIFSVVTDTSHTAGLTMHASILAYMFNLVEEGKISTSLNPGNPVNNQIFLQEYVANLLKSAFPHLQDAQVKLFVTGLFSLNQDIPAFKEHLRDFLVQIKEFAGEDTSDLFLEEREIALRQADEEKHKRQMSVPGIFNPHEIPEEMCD

As to `O=C(/C=C\n1cnc(-c2cc(C(F)(F)F)cc(C(F)(F)F)c2)n1)N1CC(F)(F)C1` [Compound 1, (Z)-3-(3-(3,5-bis(trifluoromethyl)phenyl)-1H-1,2,4-triazol-1-yl)-1-(3,3-difluoroazetidin-1-yl)prop-2-en-1-one], the “Tumor growth (tumor volume as percentage of initial volume)” value with HCT-116 xenografts (25 or 75 mg/kg QDx5 SC, HCT-116 xenograft mice) is reported as “inhibited tumor growth”. The “Anti-tumor effect compared to 5-FU” value in the series on HCT-116 xenografts (vs 50 mg/kg 5-FU IP days 1-3) is “superior anti-tumor effects compared to 5-FU”. In addition, the “Phosphorylation state of pRb (Western blot)” value in the series with HCT-116 cells [1] was “induces dephosphorylation of pRb in both cytoplasmic and nuclear fractions”. The “Nuclear localization of APC and IκB” value with HCT-116 cells [2] is “induced the nuclear localization of the tumor suppressor proteins, APC and IκB”. Moreover, the “Number of splenocytes and circulating CD8 cells (FACS)” value in series [3] was “modest decrease in the number of splenocytes and circulating CD8 cells”. Besides, the “Nuclear localization of pRb” value with HCT-116 cells [4] is “induced nuclear localization of the tumor suppressor gene protein, pRb”. Moreover, on CRM1, the “Nuclear export function of CRM1” value was “inhibited the nuclear export function of CRM1”; the “Subcellular localization of p21 and p53” value was “both p21 and p53 were concentrated in the nucleus”. Besides, the EAE clinical score entry in series [5] was “reduced the clinical score in a statistically significant manner”. Besides, the AUC(0-inf) in [6] is 12300 ng·h/mL. For the same compound, in [7], the concentration for a half-maximal effect (EC50) at 72 h was under 1000 nM. The partition ratio (Kp) at 2 h in series [8] worked out at 5. The “Induction of p21 and p53 (Western blot)” value with HCT-116 cells [9] (2-24 hours) is “induces p21 and p53 in both cytoplasmic and nuclear fractions”. In the series with HCT-116 cells [9] (24 hours), the “Induction of apoptosis (PARP decrease, cleaved PARP increase)” value is on record as “induces apoptosis in HCT-116 cells after 24 hours”.
